Structure (SMILES) | melting point [°C]
O=S(=O)(Nc1nc2ccccc2nc1Cl)c1ccc(F)cc1 | 181 to 183
O=C(O)C1=CC=CN2CCS(=O)(=O)N=C12 | 313 to 315
CC(=O)NC1CCCNC1 (centres undefined) | 65 to 67
OCCSc1ccnc2cc(Cl)ccc12 | 111 to 113
O=C(O)c1c[nH]nc1-c1cccnc1 | 255 to 257
O=C(O)Cc1csc(-c2cccnc2)n1 | 115 to 117
Cc1ccc(Oc2ncccc2C#N)c(Br)c1 | 116 to 118
Cn1cc(C=O)cn1 | 31 to 33
CC(C)c1ncc(Cl)c(C(=O)O)n1 | 129 to 131
Cc1nc2nc(S)nn2c(C)c1CC(=O)O | 226 to 228
CNc1scnc1C(=O)O | 99 to 101
CC(=NO)c1ccc(S(=O)(=O)N(C)C)cc1 | 108 to 110
CC(C)N1C(=O)NC(=O)C1=O | 92 to 96
O=C1CCS(=O)(=O)O1 | 69 to 71
Ic1nnc[nH]1 | 196 to 198
NC(=S)CN1C(=O)c2ccccc2S1(=O)=O | 160 to 162
CCOC(=O)c1cnn2c3c(cnc12)CCOC3=O | 246 to 248
CCOc1ccc(-c2nc(CO)cs2)cc1 | 107 to 109
c1nc(N2CCNCC2)c2sccc2n1 | 98 to 100
Nc1cc(C(F)(F)F)ccc1O | 115 to 117
CC(=O)c1sc(-c2ccc(O)cc2)nc1C | 133 to 135
O=C(O)c1ccnc(N2CCCCC2)n1 | 99 to 101
O=C(O)Cc1csc(-c2c(Cl)cccc2Cl)n1 | 142 to 144
Cn1cc([N+](=O)[O-])ccc1=O | 172 to 174

Structure (SMILES) | melting point [°C]
Nc1ccc(Oc2cc(Cl)ccc2Cl)c(F)c1 | 62 to 64
Nc1cc(-c2cccs2)ncn1 | 222 to 224
CCOC(=O)c1c(N)sc(C(=O)N(C)C)c1C | 118 to 122
Cc1ccccc1NC(=O)CC#N | 133 to 135
CC(C)Oc1ccc(S(=O)(=O)Cl)cc1Cl | 95 to 97
CNC(=O)c1ccc(Cl)cc1N | 93 to 95
O=c1c2sccc2nc(S)n1Cc1ccccc1 | 249 to 251
COc1ccc(CC2CCNCC2)cc1 | 55 to 57
O=c1ccn2ncnc2[nH]1 | 282 to 284
Cn1ncc([N+](=O)[O-])c1C(=O)O | 159 to 161
N=c1nc[nH]c2c1ncn2CCC(N)=O | 255 to 257
O=C(O)C1CC(=O)N(C2CCCCCC2)C1 (centres undefined) | 165 to 167
Cc1c(S(N)(=O)=O)sc2c(Cl)cccc12 | 261 to 263
O=C(O)c1c[nH]c(-c2ccccc2)n1 | 240 to 242
COc1ccc(C2=CCNCC2)cc1 | 73 to 75
Cc1nn(C)c2ncc(SC(=O)N(C)C)cc12 | 144 to 146
Fc1ccc2c(c1)NCCC2 | 46 to 48
Cc1nnc(S)o1 | 239 to 241
Oc1ccc2ccc(C(F)(F)F)nc2c1 | 255 to 257
ClCc1nc2cc(Cl)ccc2n1Cc1ccccc1 | 105 to 115
O=C(CCl)Nc1ccccc1[N+](=O)[O-] | 91 to 93
O=C(O)C1CCCc2ccccc21 (centres undefined) | 84 to 86
CCCCn1ncc(C(=O)O)c1C | 77 to 79
NNc1ncc(Cl)cc1Cl | 179 to 181

Structure (SMILES) | melting point [°C]
NNC(=O)c1ccc(Cl)cc1O | 209 to 211
O=C(O)CCc1ccc(C(F)(F)F)cc1 | 106 to 110
CCOc1ccc(S(=O)(=O)Cl)cc1-c1ccccc1 | 78 to 80
Cc1nc(-c2cc(C(=O)O)cs2)cs1 | 226 to 228
O=C(O)c1ccc(-c2nnco2)cc1 | 261 to 263
O=S(=O)(c1ccccc1)c1ccc(O)cc1 | 135 to 137
COCCOc1ccc2[nH]ccc2c1 | 61 to 63
Nc1ccc([N+](=O)[O-])c(Br)c1 | 169 to 171
Clc1cccc2cc(I)cnc12 | 97 to 99
O=C(Nc1ccsc1C(=O)O)c1ccoc1 | 207 to 209
N#Cc1cccc(Br)c1N=C=O | 64 to 66
CC(Cn1ccnc1)NC(=O)C1(N)CCCC1 (centres undefined) | 239 to 241
C#CCNC(C)=O | 79 to 81
O=c1c2sccc2ncn1CCO | 179 to 181
CCc1nc2c(s1)C(O)CCC2 (centres undefined) | 75 to 77
Cc1nn(Cc2cccc(Br)c2)c(C)c1C(=O)O | 174 to 176
CC(C)(C)c1ccc(C(=O)CC#N)cc1 | 78 to 80
O=C1COc2cc(OCc3ccccc3)ccc21 | 99 to 101
CC(C)(C)OC(=O)Nc1ccc(CC(N)=S)cc1 | 160 to 162
ClCc1coc(-c2ccc(I)cc2)n1 | 129 to 131
O=C(O)c1cccc(N2CCCC2=O)c1 | 195 to 208
O/N=C(/Cc1nc2ccccc2n1C(F)F)c1ccccc1 | 165 to 167
Cc1ccc(N)cc1S(=O)(=O)Nc1ccc(SC(F)F)cc1 | 227 to 230
O=C(c1cc(Cl)c[nH]1)N1CCCNCC1 | 116 to 118

Structure (SMILES) | melting point [°C]
Cc1ccc(C)n1-c1ccc(CC(=O)O)cc1 | 106 to 108
CC1(C)Cc2ccc(Cl)cc2C1O (centres undefined) | 94 to 96
O=C(CCl)Nc1cccc(S(=O)(=O)N=C2CCCN2)c1 | 156 to 160
Nc1ccc(CN2CCOCC2)cn1 | 119 to 121
CC(C)N1CCCC(Br)C1=O (centres undefined) | 52 to 54
O=C1OCC=C1Br | 53 to 55
NNC(=O)Cc1cccs1 | 64 to 66
COC(=O)NCCC(=O)O | 75 to 77
O=C(CC1CCCCC1)NC1CCC(C(=O)O)CC1 (centres undefined) | 136 to 138
O=C(O)c1nc(-c2ccccc2)oc1C1CC1 | 198 to 200
COC(=O)c1cc(S(=O)(=O)Cl)ccc1O | 81 to 83
Cc1nc(Cl)cc(-c2ccncc2)n1 | 111 to 113
Cn1c(S)nnc1Cc1ccccc1 | 158 to 160
Cc1ccc(-c2nc(-c3ccccc3)sc2CC(=O)O)cc1 | 165 to 167
CCCn1c(C)cc(C=O)c1C | 52 to 54
Cc1ccc(NC(=O)CCl)cc1S(=O)(=O)N1CCCCCC1 | 74 to 76
CCc1[nH]nc(C(=O)O)c1[N+](=O)[O-] | 149 to 151
O=C(O)c1ccc2nnc(C(F)F)n2c1 | 278 to 280
COc1ccc(C(N)=O)c(O)c1 | 145 to 147
CCCCc1ccc(CC(=O)O)cc1 | 78 to 80
CN1C(=O)CCC(C(N)=O)C1c1cccc(Cl)c1 (centres undefined) | 215 to 217
Nc1ccc2oc(-c3ccccc3F)nc2c1 | 166 to 168
N#Cc1ccc(S(=O)(=O)NC2CC2)cc1 | 99 to 101
CCOC(=O)c1sc(-c2ccc(OC)c(OC)c2)cc1N | 120 to 122

Structure (SMILES) | melting point [°C]
Cc1ccc(NC(=O)CCl)c(Br)c1 | 169 to 171
CCOC(=O)c1c(C)oc2nc(CCl)nc(N)c12 | 191 to 195
N#Cc1ccc(N2CCC(N)CC2)cc1 | 84 to 86
Nc1cc(S(=O)(=O)Nc2ccccc2Cl)ccc1O | 195 to 197
NNC(=O)CCc1ccccc1O | 166 to 168
NC(=O)c1cc2ccccc2c(Cl)n1 | 264 to 266
COc1ccc(NS(=O)(=O)c2c[nH]c(C(=O)O)c2)cc1Cl | 207 to 209
Cc1cc(C)c(S(=O)(=O)N2CCC(C(=O)O)CC2)c(C)c1 | 181 to 183
Nc1cc(F)c(N2CCCC2)c(F)c1 | 94 to 96
NS(=O)(=O)N1CCCC1 | 96 to 98
O=C(O)CN1CCS(=O)(=O)CC1 | 179 to 181
CC1(C(=O)O)CCCCN1C(=O)c1ccccc1 (centres undefined) | 187 to 189
CC(C)(C)OC(=O)NC1CCCCCC1O (centres undefined) | 85 to 87
CCOc1ccc(Nc2nnc(S)s2)cc1 | 170 to 172
COC(=O)C(c1ccc(F)cc1)N1CCN(C(=O)OC(C)(C)C)CC1 (centres undefined) | 82 to 84
OCCN(Cc1ccccc1)Cc1ccccc1 | 41 to 43
O=C(O)Cc1ccc(NC(=O)c2ccc(Br)o2)cc1 | 199 to 201
Cc1nc(N)n[nH]1 | 142 to 144
CC(C)(C)OC(=O)N1CCN2C(=O)NCC2C1 (centres undefined) | 218 to 220
N#Cc1ccc(-c2cccs2)[nH]c1=O | 301 to 303
COc1cccc(-c2ccc(CN)cc2)c1 | 46 to 48
c1cnc2[nH]cc(C3CCNCC3)c2c1 | 159 to 161
CNCCCc1cc(-c2ccc(F)cc2)no1 | 146 to 148
O=S(=O)(Cl)Cc1ccc2ccccc2c1 | 97 to 99

Structure (SMILES) | melting point [°C]
N#CCc1ccc(Oc2ccc(C(=O)O)cc2)cc1 | 183 to 185
Nc1cc(Cl)ccc1Sc1ccccc1 | 62 to 64
CC(C)(C)OC(=O)Nc1cccc(CC(=O)O)c1 | 97 to 99
O=C(Nc1nnc(C2CCCCC2)s1)OCC(F)(F)F | 182 to 184
CCc1c(C(C)(C)C)noc1N | 75 to 77
N#CCc1ccccc1CC(=O)O | 99 to 101
C=CCOc1c(Br)cc(C=O)cc1OC | 52 to 53
N#Cc1ccc(F)c(CN2CCCC2=O)c1 | 92 to 94
Cc1nn(-c2ccccc2)c(C)c1NC(=O)CCCl | 119 to 121
Cc1nc(COc2ccc(C(=O)O)cc2)no1 | 197 to 199
Cc1cc(O)cc(=O)n1C1CC1 | 264 to 266
Cc1cccc2[nH]c(CC#N)nc12 | 158 to 160
O=C(O)c1ccc(NS(=O)(=O)c2ccc(Br)cc2)cc1 | 267 to 269
CNC(=O)c1cc(Oc2cccc(O)c2C)ccn1 | 179 to 181
O=c1[nH]c2ccc(NCc3ccc(Cl)cc3)cc2[nH]1 | 264 to 266
CC1CN(C(=O)OC(C)(C)C)CC(C)N1 (centres undefined) | 64 to 66
CCOc1cn(-c2ccccc2)nc1C(=O)O | 142 to 144
CC(C)(C)OC(=O)Nc1cc(N)c(F)cc1F | 117 to 119
O=S(=O)(Cl)CCS(=O)(=O)c1ccccc1 | 172 to 174
Cc1ccc2c(CC#N)c[nH]c2c1 | 115 to 117
CNS(=O)(=O)c1ccc(-c2ccc(Cl)c(Cl)c2)c(C(=O)O)c1 | 193 to 195
O=C1c2ccccc2S(=O)(=O)N1CCBr | 94 to 96
O=C1CCNc2ccc(F)cc2N1 | 147 to 149
NNC(=O)c1ccc2c(=O)n3c(nc2c1)CCC3 | 268 to 270

— a melting point compilation (Tetko et al.)
